From PubChem BioAssay (NCI) come the findings set out here.

Some test systems named below: SK-MEL-28 melanoma; UO-31 renal; T-47D breast; OVCAR-4 ovarian; ACHN renal; KM12 colon; SN12C renal; SNB-75 CNS; SNB-19 CNS; RXF 393 renal.
What all share (test): inhibition of tumour cell growth, NCI panel, 48 h

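Compound exposure: 48 hours, 5 concentrations, 96-well plates. Abbreviation: GI50, concentration required for 50% inhibition of growth. At the TGI there is no net growth.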 Some results are limits rather than exact numbers.

For `N[C@@H]1CCCN(c2c(/C=C3\SC(=O)NC3=O)cccc2-c2ccccc2)C1`, the GI50 in the assay on SK-MEL-28 melanoma was 13.1 µM; in the assay with UO-31 renal, 12.7 µM; in the assay with T-47D breast, 11.2 µM; in the assay on OVCAR-4 ovarian, 13.2 µM; with ACHN renal, 14.4 µM; in the assay on KM12 colon, 14.2 µM. Further, the GI50 in the assay with SN12C renal was 14.4 µM; in the assay on SNB-75 CNS it was 3.31 µM; in the assay on SNB-19 CNS, 2.93 µM; in the assay with RXF 393 renal, 6.06 µM. Also, the TGI in the assay on SK-MEL-28 melanoma came out at 27.8 µM; in the assay on UO-31 renal, 27.3 µM; with T-47D breast it was 28.8 µM; in the assay on OVCAR-4 ovarian, 28.4 µM; with ACHN renal, 29.5 µM; in the assay on KM12 colon, 28.9 µM. The TGI with SN12C renal was found to be 29.5 µM; in the assay with SNB-75 CNS it was 17.5 µM; in the assay with SNB-19 CNS it was 13.2 µM; in the assay on RXF 393 renal, 20.2 µM.

On to `C#Cc1cccc(Nc2nc3ccc([N+](=O)[O-])cc3nc2Nc2cccc(C#C)c2)c1`, for which the GI50 with SK-MEL-28 melanoma was 0.354 µM; in the assay on UO-31 renal, 0.321 µM; in the assay with T-47D breast, 0.259 µM; in the assay on OVCAR-4 ovarian it was 0.218 µM; in the assay with ACHN renal, 0.293 µM; in the assay with KM12 colon, 0.299 µM. In addition, the GI50 is 0.313 µM in the assay with SN12C renal, 0.175 µM in the assay with SNB-75 CNS, 0.361 µM in the assay on SNB-19 CNS and 0.227 µM in the assay on RXF 393 renal. For the same compound, the TGI in the assay on SK-MEL-28 melanoma stood at 1.17 µM; in the assay with UO-31 renal it was 1.14 µM; with T-47D breast, 0.889 µM; in the assay with OVCAR-4 ovarian, 0.982 µM; in the assay on ACHN renal, 1.16 µM; in the assay on KM12 colon, 1.03 µM. Further, the TGI was 1.29 µM in the assay on SN12C renal, 0.653 µM in the assay with SNB-75 CNS, 1.84 µM with SNB-19 CNS and 0.618 µM in the assay with RXF 393 renal.

As to `CCCCn1sc(=O)n(Cc2ccc(CNC(=O)OCc3ccc4c(Br)cc(Br)c(O)c4n3)cc2)c1=O`, the TGI with SK-MEL-28 melanoma was > 100 µM; in the assay on UO-31 renal, > 100 µM; in the assay on T-47D breast, > 100 µM; with OVCAR-4 ovarian, > 100 µM; in the assay with ACHN renal, > 100 µM; in the assay with KM12 colon, > 24.4 µM. Further, the TGI with SN12C renal, in the assay on SNB-75 CNS, with SNB-19 CNS and with RXF 393 renal was > 100 µM each time. In addition, the GI50 was 1.05 µM with UO-31 renal; > 100 µM in the assay with T-47D breast; 0.701 µM in the assay on OVCAR-4 ovarian; 0.505 µM with ACHN renal; 0.374 µM in the assay on KM12 colon; 0.53 µM in the assay with SN12C renal. Besides, the GI50 in the assay on SNB-75 CNS was 0.499 µM; in the assay on SNB-19 CNS, 2.66 µM; with RXF 393 renal it was 0.47 µM.

As to `Cc1nc2n(c(=O)c1CCN1CCC(c3noc4cc(F)ccc34)CC1)CCCC2`, the GI50 with SK-MEL-28 melanoma, in the assay with UO-31 renal, in the assay with T-47D breast, in the assay on OVCAR-4 ovarian, with ACHN renal and with KM12 colon was > 50 µM each time. Also, the GI50 in the assay on SN12C renal, with SNB-75 CNS, in the assay with SNB-19 CNS and in the assay on RXF 393 renal was > 50 µM each time. The TGI with SK-MEL-28 melanoma, in the assay with UO-31 renal, with T-47D breast, in the assay on OVCAR-4 ovarian, in the assay with ACHN renal and in the assay on KM12 colon was > 50 µM in each case. Further, the TGI with SN12C renal, in the assay on SNB-75 CNS, with SNB-19 CNS and in the assay on RXF 393 renal was > 50 µM in each case.

Regarding `C#CCOc1cccc(Nc2ncnc3ccc(NC(=O)CCl)cc23)c1`, the GI50 was 5.15 µM in the assay on SK-MEL-28 melanoma; 0.312 µM in the assay on UO-31 renal; 3.44 µM with T-47D breast; 5.49 µM in the assay with OVCAR-4 ovarian; 0.253 µM with ACHN renal; 0.776 µM in the assay with KM12 colon. Further, the GI50 with SN12C renal was 0.3 µM; in the assay with SNB-75 CNS it was 1.87 µM; in the assay on SNB-19 CNS, 1.88 µM; in the assay on RXF 393 renal, 4.47 µM. Also, the TGI in the assay with SK-MEL-28 melanoma was 27 µM; in the assay with UO-31 renal, 7.11 µM; in the assay on T-47D breast, 30.9 µM; with OVCAR-4 ovarian, 25.6 µM; in the assay on ACHN renal, 7.73 µM; in the assay with KM12 colon, 10.6 µM. Moreover, the TGI is > 79.8 µM in the assay with SN12C renal, > 100 µM in the assay with SNB-75 CNS, 81.9 µM with SNB-19 CNS and 19 µM with RXF 393 renal.

As for `C=C1C(=O)O[C@H]2[C@H]1CC/C(COC(=O)c1ccc(C#N)cc1)=C\CC[C@@]1(C)O[C@@H]21`, the GI50 with SK-MEL-28 melanoma was 2.2 µM; in the assay with UO-31 renal, 1.57 µM; in the assay on T-47D breast it was 1.74 µM; with OVCAR-4 ovarian, 2.88 µM; in the assay on ACHN renal, 1.85 µM; with KM12 colon it was 3.94 µM. Further, the GI50 in the assay on SN12C renal is 2.22 µM; in the assay on SNB-75 CNS, 7.23 µM; in the assay with SNB-19 CNS it was 3.9 µM; with RXF 393 renal it was 1.03 µM. In addition, the TGI in the assay with SK-MEL-28 melanoma was 4.82 µM; in the assay on UO-31 renal it was 3.34 µM; in the assay on T-47D breast it was 5.24 µM; with OVCAR-4 ovarian, 9.39 µM; with ACHN renal, 4.26 µM; in the assay with KM12 colon, 14.8 µM. Moreover, the TGI in the assay on SN12C renal turned out to be 5.75 µM; with SNB-75 CNS, 21.4 µM; in the assay with SNB-19 CNS it was 15.1 µM; in the assay with RXF 393 renal, 2.32 µM.

With `CCN1C(=O)N(c2ccccc2)C2NN=c3s/c(=C4\C(=O)N(C(C)C)c5ccccc54)c(=O)n3C21` (centres undefined), the GI50 in the assay on SK-MEL-28 melanoma is 2.71 µM; with UO-31 renal it was 2.35 µM; in the assay on T-47D breast, 0.716 µM; with OVCAR-4 ovarian, 3.71 µM; in the assay on ACHN renal, 1.5 µM; in the assay on KM12 colon it was 0.977 µM. Further, the GI50 with SN12C renal was 1.86 µM; in the assay on SNB-75 CNS, 0.253 µM; with SNB-19 CNS, 2.1 µM; with RXF 393 renal, 0.612 µM. Also, the TGI is > 100 µM with SK-MEL-28 melanoma; > 100 µM in the assay with UO-31 renal; > 100 µM with T-47D breast; > 100 µM with OVCAR-4 ovarian; > 57.9 µM with ACHN renal; > 100 µM with KM12 colon. In addition, the TGI is > 100 µM with SN12C renal, 4.79 µM in the assay with SNB-75 CNS, > 100 µM in the assay with SNB-19 CNS and 2.63 µM with RXF 393 renal.
